# Data as given in patent US20060052396A1, “Arylamines for the treatment of conditions associated with gsk-3” (priority 2001, published 2006).
structure (smiles),measurement,value
"CN(C)S(=O)(=O)c1ccccc1-c1cnc(N)c(C(=O)Nc2cccnc2)n1 [Example 235, 3-Amino-6-{2-[(dimethylamino)sulfonyl]phenyl}-N-pyridin-3-ylpyrazine-2-carboxamide]",melting point,221.5 to 223 °C
